In US12268694B2, “Combination pharmaceutical agents as RSV inhibitors” (Enanta Pharmaceuticals, Inc., priority 2017, dated 2025):

What follows are compounds tested on genotype A, "Long" strain RSV (assay: RSV-A assay: CPE protection in HEp-2 cells, ATPlite readout). Conditions: human respiratory syncytial virus, HEp-2, read-out: Human RSV-A (“Long” strain) EC50.
Format: cell-based, human respiratory syncytial virus
Text: HEp-2 cells, (originally derived from tumors grown in irradiated-cortisonised weanling rats that had been injected with epidermoid carcinoma tissue from a person's larynx, but later found to be indistinguishable from HeLa cells by PCR DNA analysis), were used for the culturing of genotype A, “Long” strain RSV. Flasks were inoculated with RSV and viral stocks were collected once cytopathic effect (CPE) was greater than 90%. Viral stocks in 25% sucrose media were snap frozen using liquid nitrogen to increase viral stability. Viral stock titers were quantified by tissue culture infectious dose 50% (TCID50) using 8,000 cells per well and 3-fold viral dilutions across a 96-well plate, cultured for 4 days. Viral stock titers were also quantified by a plaque forming unit assay, as described elsewhere.
Following extensive parameter testing, the final assay is run as follows: HEp-2 cells are seeded into the inner 60 wells of a 96-well plate at 8,000 cells per well in a volume of 50 μL using Growth Media (DMEM without phenol red, 1% L-Glut, 1% Penn/Strep, 1% nonessential amino acids, 10% heat-inactivated FBS). 2-fold serial dilutions of control and test compounds are added to the wells in duplicate in a total volume of 25 μL. Viral stock is then added to the wells at a multiplicity of infection (MOI) of 0.1 in a volume of 25 μL, bringing the total volume of each well to 100 μL. The MOI is calculated using the PFU/mL, or TCID50 if unavailable. Each 96-well plate has a control column of 6 wells with cells and virus but no compound (negative control, max CPE), a column with cells but no compound or virus (positive control, minimum CPE), and a column with no cells or virus or compound (background plate/reagent control). The control wells with cells but no virus are given an additional 25 μL of growth media containing an equal quantity of sucrose as those wells receiving the viral stock in order to keep consistent in media and volume conditions. The outer wells of the plate are filled with 125 μL of moat media (DMEM, 1% Penn/Strep) to act as a thermal and evaporative moat around the test wells. Following a 5-day incubation period, the plates are read using ATPlite (50 μL added per well), which quantifies the amount of ATP (a measure of cell health) present in each well. Assay plates are read using the Envision luminometer. In parallel, cytotoxicity is examined on an additional 96-well plate treated in an identical manner, but substituting the 25 μL of viral stock for 25 μL of growth media. […] EC50 ranges are as follows: A <0.4 μM; B 0.4-0.8 μM; C >0.8 μM and CC50 ranges are as follows: A >50 μM; B 10-50 μM; C <10 μM.
With CN1CCC(N2CCC[C@H]2c2nnc(NC3N=C(c4ccccc4)c4ccccc4NC3=O)o2)CC1 (stereo partly drawn) [Example 228] the EC50 was over 800 nM. For COCCOc1ccccc1-c1nnc(NC2N=C(c3ccccc3)c3ccccc3NC2=O)o1 (stereo not drawn) [Example 229], the EC50 was over 800 nM. With CC1(Nc2nnc(-c3ccc(F)cc3)o2)N=C(c2ccccc2)c2ccccc2NC1=O (stereo not drawn) [Example 230] the EC50 was over 800 nM. O=C1Nc2ccccc2C(c2ccccc2)=NC1Nc1nnc(-c2ccc(-n3ccnc3)cc2)o1 (stereo not drawn) [Example 231] showed an EC50 of under 400 nM. In the case of O=C1Nc2ccccc2C(c2ccccc2)=NC1Nc1nnc(-c2ccc(-n3ccnc3)nc2)o1 (stereo not drawn) [Example 232], the EC50 is reported as over 800 nM. O=C1Nc2ccccc2C(c2ccccc2)=NC1Nc1nnc(-c2ccc(-n3cnnc3)cc2)o1 (stereo not drawn) [Example 233] was tested, and the EC50 was over 800 nM. Compound CN(C)CCOc1ccccc1-c1nnc(NC2N=C(c3ccccc3)c3ccccc3NC2=O)o1 (stereo not drawn) [Example 234] has an EC50 of over 800 nM. Work on COCCOc1ccc(-c2nnc(NC3N=C(c4ccccc4)c4ccccc4NC3=O)o2)cc1 (stereo not drawn) [Example 236] yielded an EC50 of over 800 nM. For CN1CCN(c2ncccc2-c2nnc(NC3N=C(c4ccccc4)c4ccccc4NC3=O)o2)CC1 (stereo not drawn) [Example 237], the EC50 was over 800 nM. For CN[C@H](c1ccccc1)c1nnc(NC2N=C(c3ccccc3)c3ccccc3NC2=O)o1 (stereo partly drawn) [Example 238], the EC50 was over 800 nM. For O=C1Nc2ccccc2C(c2ccccc2)=NC1Nc1nnc(-c2ccccc2OC2CCOCC2)o1 (stereo not drawn) [Example 239], the EC50 was over 800 nM. Work on O=C1Nc2ccccc2C(c2ccccc2)=NC1Nc1nnc(-c2ccccc2N2CCS(=O)(=O)CC2)o1 (stereo not drawn) [Example 240] yielded an EC50 of over 800 nM. In the case of O=C1Nc2ccccc2C(c2ccccc2)=NC1Nc1nnc(-c2cccnc2N2CCCCC2)o1 (stereo not drawn) [Example 241], the EC50 is reported as over 800 nM. C[C@@H]1CN(c2ccc(-c3nnc(N[C@H]4N=C(c5ccccc5)c5ccccc5NC4=O)o3)c(Cl)c2)C[C@H](C)O1 [Example 243] showed an EC50 of over 800 nM. Work on O=C1Nc2ccccc2C(c2ccccc2)=N[C@@H]1Nc1nnc(-c2ccc(N3C4CCC3COC4)cc2Cl)o1 [Example 244] yielded an EC50 of over 800 nM. Work on O=C1Nc2ccccc2C(c2ccccc2)=NC1Nc1nnc(-c2cccnc2N2CCCC(F)(F)C2)o1 (stereo not drawn) [Example 246] yielded an EC50 of over 800 nM. For CO[C@H]1CCN(c2ncccc2-c2nnc(NC3N=C(c4ccccc4)c4ccccc4NC3=O)o2)C1 (stereo partly drawn) [Example 247], the EC50 was over 800 nM. O=C1Nc2ccccc2C(c2ccccc2)=NC1Nc1nnc(-c2cccnc2N2C[C@@H]3C[C@H]2CO3)o1 (stereo partly drawn) [Example 248] showed an EC50 of over 800 nM. Work on COC1CCN(c2ncccc2-c2nnc(NC3N=C(c4ccccc4)c4ccccc4NC3=O)o2)CC1 (stereo not drawn) [Example 254] yielded an EC50 of over 800 nM. O=C1Nc2ccccc2C(c2ccccc2)=NC1Nc1nnc(-c2cccnc2N2CCC(O)CC2)o1 (stereo not drawn) [Example 255] was tested, and the EC50 was over 800 nM. In the case of O=C1Nc2ccccc2C(c2ccccc2)=NC1Nc1nnc(-c2cccnc2N2CCC(F)CC2)o1 (stereo not drawn) [Example 256], the EC50 is reported as over 800 nM. COC1CN(c2ncccc2-c2nnc(NC3N=C(c4ccccc4)c4ccccc4NC3=O)o2)C1 (stereo not drawn) [Example 258] showed an EC50 of over 800 nM. O=C1Nc2ccccc2C(c2ccccc2)=NC1Nc1nnc(-c2cccnc2N2CC(F)(F)C2)o1 (stereo not drawn) [Example 259] gave an EC50 of over 800 nM. Compound N#CC1CCN(c2ncccc2-c2nnc(NC3N=C(c4ccccc4)c4ccccc4NC3=O)o2)CC1 (stereo not drawn) [Example 260] has an EC50 of over 800 nM. Work on C[C@H]1COCCN1c1ncccc1-c1nnc(NC2N=C(c3ccccc3)c3ccccc3NC2=O)o1 (stereo partly drawn) [Example 261] yielded an EC50 of over 800 nM. In the case of C[C@@H]1CN(c2ncccc2-c2nnc(NC3N=C(c4ccccc4)c4ccccc4NC3=O)o2)CCO1 (stereo partly drawn) [Example 262], the EC50 is reported as over 800 nM. In the case of O=C1Nc2ccccc2C(c2ccccc2)=NC1Nc1nnc(-c2cccnc2N2C[C@H]3C[C@@H]2CO3)o1 (stereo partly drawn) [Example 264], the EC50 is reported as over 800 nM. O=C1Nc2ccccc2C(c2ccccc2)=NC1Nc1nnc(-c2cccnc2N2C3CCC2COC3)o1 (stereo not drawn) [Example 265] gave an EC50 of over 800 nM. For O=C1Nc2ccccc2C(c2ccccc2)=NC1Nc1nnc(-c2cccnc2N2CC3CCC(C2)O3)o1 (stereo not drawn) [Example 266], the EC50 was 400 to 800 nM. With O=C1Nc2ccccc2C(c2ccccc2)=NC1Nc1nnc(-c2cccnc2N2C[C@H]3COC[C@H]3C2)o1 (stereo partly drawn) [Example 267] the EC50 was over 800 nM. In the case of O=C1Nc2ccccc2C(c2ccccc2)=NC1Nc1nnc(-c2cccnc2N2CCn3ncnc3C2)o1 (stereo not drawn) [Example 270], the EC50 is reported as over 800 nM. COC1CN(c2cc(C(F)(F)F)cnc2-c2nnc(N[C@H]3N=C(c4ccccc4)c4ccccc4NC3=O)o2)C1 [Example 271] showed an EC50 of over 800 nM. Compound O=C1Nc2ccccc2C(c2ccccc2)=NC1Nc1nnc(-c2ccc(-n3cncn3)cc2)o1 (stereo not drawn) [Example 273] has an EC50 of 400 to 800 nM. N#CC1CN(c2ncccc2-c2nnc(NC3N=C(c4ccccc4)c4ccccc4NC3=O)o2)C1 (stereo not drawn) [Example 274] gave an EC50 of over 800 nM. Compound O=C1Nc2ccccc2C(c2ccccc2)=N[C@@H]1Nc1nnc(-c2ccc(C(F)(F)F)nc2N2C3CCC2COC3)o1 [Example 275] has an EC50 of over 800 nM. For Cc1ccc(-c2nnc(N[C@H]3N=C(c4ccccc4)c4ccccc4NC3=O)o2)c(N2CC3CCC(C2)O3)n1 [Example 279], the EC50 was under 400 nM. For Cc1ccc(-c2nnc(N[C@H]3N=C(c4ccccc4)c4ccccc4NC3=O)o2)c(N2C3CCC2COC3)n1 [Example 280], the EC50 was under 400 nM. In the case of N#Cc1ccc(-c2nnc(N[C@H]3N=C(c4ccccc4)c4ccccc4NC3=O)o2)c(N2CC3CCC(C2)O3)c1 [Example 281], the EC50 is reported as under 400 nM. For O=C1Nc2ccccc2C(c2ccccc2)=N[C@@H]1Nc1nnc(-c2ncc(C(F)(F)F)cc2-c2ccncc2)o1 [Example 282], the EC50 was over 800 nM. For O=C1Nc2ccccc2C(c2ccccc2)=NC1Nc1nnc(-c2ccccc2-n2cccn2)o1 (stereo not drawn) [Example 283], the EC50 was over 800 nM. In the case of C[C@@H]1CN(c2cc(F)ccc2-c2nnc(N[C@H]3N=C(c4ccccc4)c4ccccc4NC3=O)o2)C[C@H](C)O1 [Example 284], the EC50 is reported as over 800 nM. In the case of C[C@@H]1COCCN1c1cc(C#N)ccc1-c1nnc(N[C@H]2N=C(c3ccccc3)c3ccccc3NC2=O)o1 [Example 285], the EC50 is reported as under 400 nM. For Cc1ccc(-c2nnc(N[C@H]3N=C(c4ccccc4)c4ccccc4NC3=O)o2)c(N2CCOC[C@H]2C)n1 [Example 286], the EC50 was under 400 nM. With O=C1Nc2ccccc2C(c2ccccc2)=N[C@@H]1Nc1nnc(-c2ccc(F)cc2N2CC3CCC(C2)O3)o1 [Example 288] the EC50 was 400 to 800 nM. N#Cc1ccc(-c2nnc(N[C@H]3N=C(c4ccccc4)c4ccccc4NC3=O)o2)c(N2C3CCC2COC3)c1 [Example 289] gave an EC50 of under 400 nM. For O=C1Nc2ccccc2C(c2ccccc2)=N[C@@H]1Nc1nnc(-c2cnc(C(F)(F)F)nc2N2CC3CCC(C2)O3)o1 [Example 290], the EC50 was over 800 nM. N#Cc1c[nH]c2cc(-c3nnc(N[C@H]4N=C(c5ccccc5)c5ccccc5NC4=O)o3)ccc12 [Example 291] showed an EC50 of over 800 nM. O=C1Nc2ccccc2C(c2ccccc2)=N[C@@H]1Nc1nnc(-c2nnsc2N2CCOCC2)o1 [Example 292] gave an EC50 of under 400 nM. Compound O=C1Nc2ccccc2C(c2ccccc2)=N[C@@H]1Nc1nnc(-c2ncc(C(F)(F)F)cc2C2CC2)o1 [Example 293] has an EC50 of over 800 nM. With C[C@@H]1COCCN1c1cc(C(F)(F)F)cnc1-c1nnc(N[C@H]2N=C(c3ccccc3)c3ccccc3NC2=O)o1 [Example 294] the EC50 was under 400 nM. COc1ccc(-c2nnc(N[C@H]3N=C(c4ccccc4)c4ccccc4NC3=O)o2)c(N2CCOCC2)n1 [Example 295] showed an EC50 of under 400 nM. CN1CCN(c2cc(C(F)(F)F)cnc2-c2nnc(N[C@H]3N=C(c4ccccc4)c4ccccc4NC3=O)o2)CC1=O [Example 296] showed an EC50 of over 800 nM. CC(C)(O)CNc1cc(C(F)(F)F)cnc1-c1nnc(N[C@H]2N=C(c3ccccc3)c3ccccc3NC2=O)o1 [Example 297] gave an EC50 of under 400 nM. In the case of COCCn1c(-c2nnc(N[C@H]3N=C(c4ccccc4)c4ccccc4NC3=O)o2)nc2ccccc21 [Example 298], the EC50 is reported as over 800 nM. Compound O=C1Nc2ccccc2C(c2ccccc2)=N[C@@H]1Nc1nnc(-c2ncc(F)cc2N2CC3CCC(C2)O3)o1 [Example 299] has an EC50 of under 400 nM. C[C@@H]1COCCN1c1cc(C#N)cnc1-c1nnc(N[C@H]2N=C(c3ccccc3)c3ccccc3NC2=O)o1 [Example 301] showed an EC50 of under 400 nM. With CN(C)c1cc(C(F)(F)F)cnc1-c1nnc(N[C@H]2N=C(c3ccccc3)c3ccccc3NC2=O)o1 [Example 302] the EC50 was over 800 nM. For COCCNc1cc(C(F)(F)F)cnc1-c1nnc(N[C@H]2N=C(c3ccccc3)c3ccccc3NC2=O)o1 [Example 305], the EC50 was under 400 nM. Compound COCCn1ccnc1-c1nnc(N[C@H]2N=C(c3ccccc3)c3ccccc3NC2=O)o1 [Example 306] has an EC50 of over 800 nM. In the case of CNc1cc(C(F)(F)F)cnc1-c1nnc(N[C@H]2N=C(c3ccccc3)c3ccccc3NC2=O)o1 [Example 307], the EC50 is reported as over 800 nM.
